Columns and labels:
[1] = test system: DYT1 patient plasma derived EVs; assay: Plasma-derived EV proteomics (ExoQuick ULTRA, DIA LC/MS/MS), DYT1 vs Healthy Controls; set-up: species or system human; conditions: Hs. Plasma EVs (DYT1/WT); significance of genotype difference
Description: Data was obtained for extracellular vesicles using previously acquired samples. The ExoQuick® ULTRA EV Isolation System was used to fractionate and enrich EVs from plasma. Isolated plasma EV samples were then submitted to proteomic analysis by the Duke Proteomics and Metabolomics Core Facility (DPMCF). At the DPMCF, quantitative (LC/MS/MS) was performed on 500 ng of each sample, using an EvoSep One UPLC system coupled to a Thermo Orbitrap Astral high-resolution accurate mass tandem mass spectrometer (Thermo). Briefly, the sample was eluted directly from an Evotip which was subjected to a low organic wash and then subjected to an analytical separation using a 1.7 μm EvoSep 150 um ID×15 cm endurance (EveoSep) column running an SPD30 gradient from approximately 5 to 30% acetonitrile with 0.1% formic acid with a column temperature of 50 C. Data collection on the Orbitrap Astral mass spectrometer was performed in a data-independent acquisition (DIA) mode of acquisition with a r=240,000 (@m/z 200) full MS scan from m/z 380-980 with a target AGC value of 4e5 ions. Fixed DIA, windows of 4 m/z from m/z 380 to 980 DIA MS/MS scans were acquired in the Astral with a target AGC value of 5e4 and a max fill time of 6 ms. HCD collision energy setting of 27% was used for all MS2 scans.

[2] = test system: DYT-TOR1A MEF EVs; assay: Quantitative LC-MS/MS proteomics of EVs from drug-treated DYT-TOR1A MEF cultures (ritonavir, salubrinal); type: cell-based, mouse; set-up: key to RTV Corrective Direction / RTV Corrective Direction, Grwd1 / RTV Corrective Direction, Srrm2 / RTV Corrective Direction, Rbm17 / RTV Corrective Direction, Dcaf8 / RTV Corrective Direction, Edil3 / RTV Corrective Direction, Timp3 / RTV Corrective Direction, Heatr3 / RTV Corrective Direction, Brd4 / RTV Corrective Direction, P3h4 / RTV Corrective Direction, Pacsin3 / RTV Corrective Direction, Naa50 / RTV Corrective Direction, Lpar6 / RTV Corrective Direction, Ndrg1 / RTV Corrective Direction, Kntc1 / RTV Corrective Direction, Cdk11b / RTV Corrective Direction, Sumo1 / RTV Corrective Direction, Lsm4 / RTV Corrective Direction, Hmga2 / RTV Corrective Direction, Cstf1 / RTV Corrective Direction, Tes / RTV Corrective Direction, Sbno1 / RTV Corrective Direction, Unc119b / RTV Corrective Direction, Cfdp1 / RTV Corrective Direction, Sec61b: YES = protein abundance effect opposite to DYT/WT; conditions: EV protein abundance; for RTV Corrective Direction: DYT + RTV (ritonavir) vs DYT, direction compared with DYT/WT; for DYT + RTV/DYT Cohen's d: ritonavir (RTV)-treated DYT vs DYT
[3] = test system: WT MEF EVs; assay: Quantitative LC-MS/MS proteomics of EVs from ISRIB-treated WT MEF cultures; type: cell-based, mouse; set-up: key to ISRIB and DYT Parallel Direction / ISRIB and DYT Parallel Direction, Ctdsp1 / ISRIB and DYT Parallel Direction, Pcdh19 / ISRIB and DYT Parallel Direction, Tspan7 / ISRIB and DYT Parallel Direction, Myo1e / ISRIB and DYT Parallel Direction, Plpp3 / ISRIB and DYT Parallel Direction, Sh3bp4 / ISRIB and DYT Parallel Direction, Dnajc7 / ISRIB and DYT Parallel Direction, Drg1 / ISRIB and DYT Parallel Direction, Maea: YES = protein abundance effect similar to DYT/WT; conditions: EV protein abundance; for WT + ISRIB/WT Cohen's d: ISRIB-treated WT vs WT; for ISRIB and DYT Parallel Direction: WT + ISRIB vs WT, direction compared with DYT/WT

## RHOA
[1]
  -LogP: 1.674

## TLN1
[1]
  -LogP: 1.51

## Akr1b1
[2]
  RTV Corrective Direction: YES
  DYT + RTV/DYT Cohen's d: 5.32
[3]
  WT + ISRIB/WT Cohen's d: −0.22
  ISRIB and DYT Parallel Direction: YES

## Ptprs
[2]
  RTV Corrective Direction: YES
  DYT + RTV/DYT Cohen's d: −5.40
[3]
  WT + ISRIB/WT Cohen's d: 0.13
  ISRIB and DYT Parallel Direction: YES

## Prpf8
[2]
  RTV Corrective Direction: YES
  DYT + RTV/DYT Cohen's d: 7.95
[3]
  WT + ISRIB/WT Cohen's d: −0.01
  ISRIB and DYT Parallel Direction: YES

## Pgp
[2]
  RTV Corrective Direction: YES
  DYT + RTV/DYT Cohen's d: 2.28
[3]
  WT + ISRIB/WT Cohen's d: −0.86
  ISRIB and DYT Parallel Direction: YES

## Cul3
[2]
  RTV Corrective Direction: YES
  DYT + RTV/DYT Cohen's d: 2.36
[3]
  WT + ISRIB/WT Cohen's d: −0.66
  ISRIB and DYT Parallel Direction: YES

## Ltbp2
[2]
  RTV Corrective Direction: YES
  DYT + RTV/DYT Cohen's d: −5.72
[3]
  WT + ISRIB/WT Cohen's d: 0.70
  ISRIB and DYT Parallel Direction: YES

## Spp1
[2]
  RTV Corrective Direction: YES
  DYT + RTV/DYT Cohen's d: −6.93
[3]
  WT + ISRIB/WT Cohen's d: 2.67
  ISRIB and DYT Parallel Direction: YES

## MAPK3
[1]
  -LogP: 1.682

## Nrbp1
[2]
  RTV Corrective Direction: YES
  DYT + RTV/DYT Cohen's d: 6.35
[3]
  WT + ISRIB/WT Cohen's d: 0.18

## TARDBP
[1]
  -LogP: 1.352

## Notch3
[2]
  RTV Corrective Direction: YES
  DYT + RTV/DYT Cohen's d: −2.22
[3]
  WT + ISRIB/WT Cohen's d: 0.52
  ISRIB and DYT Parallel Direction: YES

## Myo18a
[2]
  RTV Corrective Direction: YES
  DYT + RTV/DYT Cohen's d: 4.91
[3]
  WT + ISRIB/WT Cohen's d: 2.27

## Ddx39b
[2]
  RTV Corrective Direction: YES
  DYT + RTV/DYT Cohen's d: 13.79
[3]
  WT + ISRIB/WT Cohen's d: −1.12
  ISRIB and DYT Parallel Direction: YES

## Sptbn1
[2]
  RTV Corrective Direction: YES
  DYT + RTV/DYT Cohen's d: 3.27
[3]
  WT + ISRIB/WT Cohen's d: −0.82
  ISRIB and DYT Parallel Direction: YES

## PI4KA
[1]
  -LogP: 2.66

## Dhx9
[2]
  RTV Corrective Direction: YES
  DYT + RTV/DYT Cohen's d: 6.23
[3]
  WT + ISRIB/WT Cohen's d: −1.27
  ISRIB and DYT Parallel Direction: YES

## Rab1b
[2]
  RTV Corrective Direction: YES
  DYT + RTV/DYT Cohen's d: 1.15
[3]
  WT + ISRIB/WT Cohen's d: −2.54
  ISRIB and DYT Parallel Direction: YES

## TLN2
[1]
  -LogP: 1.45

## CRYAB
[1]
  -LogP: 1.577

## Sar1a
[2]
  RTV Corrective Direction: YES
  DYT + RTV/DYT Cohen's d: 4.40
[3]
  WT + ISRIB/WT Cohen's d: −1.23
  ISRIB and DYT Parallel Direction: YES

## DLST
[1]
  -LogP: 1.928

## Ltbp1
[2]
  RTV Corrective Direction: YES
  DYT + RTV/DYT Cohen's d: −3.08
[3]
  WT + ISRIB/WT Cohen's d: 2.17
  ISRIB and DYT Parallel Direction: YES

## Oxsr1
[2]
  RTV Corrective Direction: YES
  DYT + RTV/DYT Cohen's d: 5.88
[3]
  WT + ISRIB/WT Cohen's d: −0.72
  ISRIB and DYT Parallel Direction: YES

## lgf1r
[2]
  RTV Corrective Direction: YES
  DYT + RTV/DYT Cohen's d: 0.63
[3]
  WT + ISRIB/WT Cohen's d: 0.75

## PSME4
[1]
  -LogP: 1.398

## MYH9
[1]
  -LogP: 1.313

## Hdgf
[2]
  RTV Corrective Direction: YES
  DYT + RTV/DYT Cohen's d: −0.15
[3]
  WT + ISRIB/WT Cohen's d: 1.97
  ISRIB and DYT Parallel Direction: YES

## Otub1
[2]
  RTV Corrective Direction: YES
  DYT + RTV/DYT Cohen's d: 5.84
[3]
  WT + ISRIB/WT Cohen's d: −2.26
  ISRIB and DYT Parallel Direction: YES

## Ilf2
[2]
  RTV Corrective Direction: YES
  DYT + RTV/DYT Cohen's d: 2.47
[3]
  WT + ISRIB/WT Cohen's d: −1.37
  ISRIB and DYT Parallel Direction: YES

## Idh2
[2]
  RTV Corrective Direction: YES
  DYT + RTV/DYT Cohen's d: 23.61
[3]
  WT + ISRIB/WT Cohen's d: −2.01
  ISRIB and DYT Parallel Direction: YES

## Huwe1
[2]
  RTV Corrective Direction: YES
  DYT + RTV/DYT Cohen's d: 5.04
[3]
  WT + ISRIB/WT Cohen's d: −3.93
  ISRIB and DYT Parallel Direction: YES

## Cope
[2]
  RTV Corrective Direction: YES
  DYT + RTV/DYT Cohen's d: 7.24
[3]
  WT + ISRIB/WT Cohen's d: −1.30
  ISRIB and DYT Parallel Direction: YES

## Cnot1
[2]
  RTV Corrective Direction: YES
  DYT + RTV/DYT Cohen's d: 5.54
[3]
  WT + ISRIB/WT Cohen's d: −2.56
  ISRIB and DYT Parallel Direction: YES

## TGFB2
[1]
  -LogP: 2.018

## Svep1
[2]
  RTV Corrective Direction: YES
  DYT + RTV/DYT Cohen's d: −0.40
[3]
  WT + ISRIB/WT Cohen's d: −0.50

## Col5a1
[2]
  RTV Corrective Direction: YES
  DYT + RTV/DYT Cohen's d: −0.89
[3]
  WT + ISRIB/WT Cohen's d: 0.06
  ISRIB and DYT Parallel Direction: YES

## Col10a1
[2]
  RTV Corrective Direction: YES
  DYT + RTV/DYT Cohen's d: −3.41
[3]
  WT + ISRIB/WT Cohen's d: 0.36
  ISRIB and DYT Parallel Direction: YES

## PCMT1
[1]
  -LogP: 1.506

## PSMC5
[1]
  -LogP: 1.615

## Gmppb
[2]
  RTV Corrective Direction: YES
  DYT + RTV/DYT Cohen's d: 5.38
[3]
  WT + ISRIB/WT Cohen's d: −2.41
  ISRIB and DYT Parallel Direction: YES

## Usp7
[2]
  RTV Corrective Direction: YES
  DYT + RTV/DYT Cohen's d: 6.89
[3]
  WT + ISRIB/WT Cohen's d: −1.90
  ISRIB and DYT Parallel Direction: YES

## Nes
[2]
  DYT + RTV/DYT Cohen's d: 0.37
[3]
  WT + ISRIB/WT Cohen's d: 2.29
  ISRIB and DYT Parallel Direction: YES

## Sptan1
[2]
  RTV Corrective Direction: YES
  DYT + RTV/DYT Cohen's d: 3.22
[3]
  WT + ISRIB/WT Cohen's d: −0.40
  ISRIB and DYT Parallel Direction: YES

## Tardbp
[2]
  RTV Corrective Direction: YES
  DYT + RTV/DYT Cohen's d: 0.80
[3]
  WT + ISRIB/WT Cohen's d: 0.28
  ISRIB and DYT Parallel Direction: YES

## Hmcn1
[2]
  RTV Corrective Direction: YES
  DYT + RTV/DYT Cohen's d: −3.58
[3]
  WT + ISRIB/WT Cohen's d: −2.25

## Itpa
[2]
  RTV Corrective Direction: YES
  DYT + RTV/DYT Cohen's d: 12.80
[3]
  WT + ISRIB/WT Cohen's d: −1.25
  ISRIB and DYT Parallel Direction: YES

## FLNA
[1]
  -LogP: 1.743

Reference: patent US20260266848A1, “COMPOSITIONS AND METHODS FOR DIAGNOSING AND TREATING DYSTONIA” (Duke University, priority 2023, published 2026)
